Molecules are shown by their SMILES.

Experiment [1] concerns MV4-11 cells. The experiment is described as follows: Inhibition of MV4-11 cell proliferation (CellTiterGlo, 72 h). The following applies: Homo sapiens; 72 h growth inhibition; uncertainty ±20%. The experiment is classed as cell-based.
In experiment [2] the target is T1, isolated kinase domain of the human FLT3 receptor (a.a. 571-993) (Homo sapiens, UniProt P36888).
T1 construct: human FLT3 receptor (a.a. 571-993)
T1 sequence (P36888 571-993): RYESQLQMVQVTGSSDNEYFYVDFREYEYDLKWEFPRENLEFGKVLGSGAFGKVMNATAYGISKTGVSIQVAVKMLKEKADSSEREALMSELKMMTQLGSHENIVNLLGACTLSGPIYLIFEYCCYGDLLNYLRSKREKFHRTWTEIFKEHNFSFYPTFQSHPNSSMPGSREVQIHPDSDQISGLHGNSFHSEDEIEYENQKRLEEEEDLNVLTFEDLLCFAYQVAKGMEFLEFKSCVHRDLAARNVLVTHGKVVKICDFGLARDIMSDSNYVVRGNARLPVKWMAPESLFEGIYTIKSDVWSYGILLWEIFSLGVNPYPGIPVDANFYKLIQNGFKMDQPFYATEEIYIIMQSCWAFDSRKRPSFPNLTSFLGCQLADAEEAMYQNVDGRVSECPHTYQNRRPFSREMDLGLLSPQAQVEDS
Nature of the experiment: FLT3 fluorescence polarization kinase assay. The experiment is classed as biochemical. The settings on record: 150 uM ATP; uncertainty ±10%. (In general: Fluorescence polarisation rises when a labelled molecule tumbles more slowly, as on binding a larger partner.)

For `COc1cc2ncnc(C3CCN(C(=O)Nc4ccc(C5=CCN(C(=O)OC(C)(C)C)CC5)cc4)CC3)c2cc1OC` [Example 61, 4-(4-{[4-(6,7-Dimethoxy-quinazolin-4-yl)-piperidine-1-carbonyl]-amino}-phenyl)-3,6-dihydro-2H-pyridine-1-carboxylic acid tert-butyl ester], the half-inhibitory concentration (IC50) (commonly the concentration that gives 50% inhibition) in experiment [1] amounted to 6000 nM; in experiment [2] it was 8500 nM.

In the case of `COc1cc2ncnc(C3CCN(C(=O)Nc4ccc(C5=CCNCC5)cc4)CC3)c2cc1OC` [Example 62, 4-(6,7-Dimethoxy-quinazolin-4-yl)-piperidine-1-carboxylic acid [4-(1,2,3,6-tetrahydro-pyridin-4-yl)-phenyl]-amide], the concentration for half-maximal inhibition (IC50) is 7500 nM in experiment [1] and greater than 10000 nM in experiment [2].

Regarding `COc1cc2ncnc(C3CCN(C(=O)Nc4ccc(C5CCN(C(=O)OC(C)(C)C)CC5)cc4)CC3)c2cc1OC` [Example 63, 4-(4-{[4-(6,7-Dimethoxy-quinazolin-4-yl)-piperidine-1-carbonyl]-amino}-phenyl)-piperidine-1-carboxylic acid tert-butyl ester], the values for the half-inhibitory concentration (IC50) in experiment [1] and in experiment [2] were 4100 nM and 2000 nM, respectively.

In the case of `CC(C)Oc1ccc(NC(=O)N2CCC(c3ncnc4cc(OCCCNS(C)(=O)=O)ccc34)CC2)cc1` [Example 65, 4-[7-(3-Methanesulfonylamino-propoxy)-quinazolin-4-yl]-piperidine-1-carboxylic acid (4-isopropoxy-phenyl)-amide], the results for the IC50 in experiment [1] and in experiment [2] were 27 nM and 19 nM, respectively.

On to `CS(=O)(=O)NCCCOc1ccc2c(C3CCN(C(=O)Nc4ccc(N5CCOCC5)cc4)CC3)ncnc2c1` [Example 66, 4-[7-(3-Methanesulfonylamino-propoxy)-quinazolin-4-yl]-piperidine-1-carboxylic acid (4-morpholin-4-yl-phenyl)-amide], for which the figures for the half-maximal inhibitory concentration (IC50) in experiment [1] and in experiment [2] were 14 nM and 18 nM, respectively.

Consider `CC(C)Oc1ccc(NC(=O)N2CCC(c3ncnc4cc(OCCCN5CCCC5=O)ccc34)CC2)cc1` [Example 67, 4-{7-[3-(2-Oxo-pyrrolidin-1-yl)-propoxy]-quinazolin-4-yl}-piperidine-1-carboxylic acid (4-isopropoxy-phenyl)-amide], for which the IC50 in experiment [1] came to 9 nM; in experiment [2], 3 nM.

Take `O=C1CCCN1CCCOc1ccc2c(C3CCN(C(=O)Nc4ccc(N5CCOCC5)cc4)CC3)ncnc2c1` [Example 68, 4-{7-[3-(2-Oxo-pyrrolidin-1-yl)-propoxy]-quinazolin-4-yl}-piperidine-1-carboxylic acid (4-morpholin-4-yl-phenyl)-amide]: the IC50 in experiment [1] amounted to 30 nM; in experiment [2], 37 nM.

Take `COc1cc2ncnc(C3CCN(C(=O)Nc4ccc(OC5CCCC5)nc4)CC3)c2cc1OC` [Example 69, 4-(6,7-Dimethoxy-quinazolin-4-yl)-piperidine-1-carboxylic acid (6-cyclopentyloxy-pyridin-3-yl)-amide]: the IC50 in experiment [1] stood at 59 nM; in experiment [2], 76 nM.

Turning to `O=C1CCCN1CCCOc1ccc2c(C3CCN(C(=O)Nc4ccc(N5CCOCC5)nc4)CC3)ncnc2c1` [Example 72, 4-{7-[3-(2-Oxo-pyrrolidin-1-yl)-propoxy]-quinazolin-4-yl}-piperidine-1-carboxylic acid (6-morpholin-4-yl-pyridin-3-yl)-amide], the 50% inhibitory concentration (IC50) in experiment [1] stood at 54 nM; in experiment [2] it was 27 nM.

In the case of `CN1CCN(CCCOc2ccc3c(C4CCN(C(=O)Nc5ccc(N6CCOCC6)cc5)CC4)ncnc3c2)CC1` [Example 73, 4-{7-[3-(4-Methyl-piperazin-1-yl)-propoxy]-quinazolin-4-yl}-piperidine-1-carboxylic acid (4-morpholin-4-yl-phenyl)-amide], the IC50 in experiment [1] was 40 nM; in experiment [2], 3 nM.

Turning to `O=C1CCCN1CCOc1ccc2c(C3CCN(C(=O)Nc4ccc(N5CCCC5)cc4)CC3)ncnc2c1` [Example 74, 4-{7-[2-(2-Oxo-pyrrolidin-1-yl)-ethoxy]-quinazolin-4-yl}-piperidine-1-carboxylic acid (4-pyrrolidin-1-yl-phenyl)-amide], the IC50 in experiment [1] worked out at 40 nM; in experiment [2], 1 nM.

For the compound `O=C(Nc1ccc(N2CCOCC2)cc1)N1CCC(c2ncnc3cc(OCCCN4CCCCC4)ccc23)CC1` [Example 75], the concentration for half-maximal inhibition (IC50) in experiment [1] was determined as 70 nM; in experiment [2], 49 nM.

Turning to `CC(C)Oc1ccc(NC(=O)N2CCC(c3ncnc4ccc(OCCCN5CCN(C)CC5)cc34)CC2)cc1` [Example 76, 4-{6-[3-(4-Methyl-piperazin-1-yl)-propoxy]-quinazolin-4-yl}-piperidine-1-carboxylic acid (4-isopropoxy-phenyl)-amide], the IC50 in experiment [1] turned out to be 179 nM; in experiment [2] it was 251 nM.

On to `O=C(Nc1ccc(N2CCOCC2)cc1)N1CCC(c2ncnc3cc(OCCCO)ccc23)CC1` [Example 77, 4-[7-(3-Hydroxy-propoxy)-quinazolin-4-yl]-piperidine-1-carboxylic acid (4-morpholin-4-yl-phenyl)-amide], for which the 50% inhibitory concentration (IC50) in experiment [1] was determined as 139 nM; in experiment [2], 103 nM.

Regarding `COCCCOc1ccc2c(C3CCN(C(=O)Nc4ccc(N5CCOCC5)cc4)CC3)ncnc2c1` [Example 78, 4-[7-(3-Methoxy-propoxy)-quinazolin-4-yl]-piperidine-1-carboxylic acid (4-morpholin-4-yl-phenyl)-amide], the IC50 in experiment [1] was 81 nM; in experiment [2], 225 nM.

Turning to `CC(C)Oc1ccc(NC(=O)N2CCC(c3ncnc4cc(OCCN5CCOC5=O)ccc34)CC2)cc1` [Example 79, 4-{7-[2-(2-Oxo-oxazolidin-3-yl)-ethoxy]-quinazolin-4-yl}-piperidine-1-carboxylic acid (4-isopropoxy-phenyl)-amide], the concentration for half-maximal inhibition (IC50) in experiment [1] turned out to be 44 nM; in experiment [2], 58 nM.

Turning to `CN1CCN(CCCOc2ccc3c(C4CCN(C(=O)Nc5ccc(N6CCOCC6)nc5)CC4)ncnc3c2)CC1` [Example 80, 4-{7-[3-(4-Methyl-piperazin-1-yl)-propoxy]-quinazolin-4-yl}-piperidine-1-carboxylic acid (6-morpholin-4-yl-pyridin-3-yl)-amide], the concentration for half-maximal inhibition (IC50) in experiment [1] was found to be 52 nM; in experiment [2], 4 nM.

Turning to `CN1CCN(CCCOc2ccc3c(C4CCN(C(=O)Nc5ccc(N6CCOCC6)c(F)c5)CC4)ncnc3c2)CC1` [Example 81, 4-{7-[3-(4-Methyl-piperazin-1-yl)-propoxy]-quinazolin-4-yl}-piperidine-1-carboxylic acid (3-fluoro-4-morpholin-4-yl-phenyl)-amide], the half-inhibitory concentration (IC50) in experiment [1] is 70 nM; in experiment [2], 7 nM.

Turning to `CN1CCN(CCCOc2ccc3c(C4CCN(C(=O)Nc5ccc(OC6CCCC6)nc5)CC4)ncnc3c2)CC1` [Example 82, 4-{7-[3-(4-Methyl-piperazin-1-yl)-propoxy]-quinazolin-4-yl}-piperidine-1-carboxylic acid (6-cyclopentyloxy-pyridin-3-yl)-amide], the figures for the IC50 in experiment [1] and in experiment [2] were 18 nM and 1 nM, respectively.

With `O=C1CCCN1CCOc1ccc2c(C3CCN(C(=O)Nc4ccc(N5CCOCC5)nc4)CC3)ncnc2c1` [Example 83, 4-{7-[2-(2-Oxo-pyrrolidin-1-yl)-ethoxy]-quinazolin-4-yl}-piperidine-1-carboxylic acid (6-morpholin-4-yl-pyridin-3-yl)-amide], the IC50 turned out to be 112 nM in experiment [1] and 20 nM in experiment [2].

`O=C1CCCN1CCOc1ccc2c(C3CCN(C(=O)Nc4cnc(N5CCCC5)nc4)CC3)ncnc2c1` [Example 84, 4-{7-[2-(2-Oxo-pyrrolidin-1-yl)-ethoxy]-quinazolin-4-yl}-piperidine-1-carboxylic acid (2-pyrrolidin-1-yl-pyrimidin-5-yl)-amide]: the concentration for half-maximal inhibition (IC50) came out at 74 nM in experiment [1] and 41 nM in experiment [2].

Regarding `O=C1CCCN1CCOc1ccc2c(C3CCN(C(=O)Nc4ccc(N5CCOCC5)cc4)CC3)ncnc2c1` [Example 85, 4-{7-[2-(2-Oxo-pyrrolidin-1-yl)-ethoxy]-quinazolin-4-yl}-piperidine-1-carboxylic acid (4-morpholin-4-yl-phenyl)-amide], the IC50 in experiment [1] was 58 nM; in experiment [2], 27 nM.

Take `CS(=O)(=O)NCCCOc1ccc2c(C3CCN(C(=O)Nc4ccc(N5CCCC5)nc4)CC3)ncnc2c1` [Example 86, 4-[7-(3-Methanesulfonylamino-propoxy)-quinazolin-4-yl]-piperidine-1-carboxylic acid (6-pyrrolidin-1-yl-pyridin-3-yl)-amide]: the IC50 in experiment [1] was 17 nM; in experiment [2], 1 nM.

As for `CS(=O)(=O)NCCCOc1ccc2c(C3CCN(C(=O)Nc4ccc(N5CCOCC5)nc4)CC3)ncnc2c1` [Example 87, 4-[7-(3-Methanesulfonylamino-propoxy)-quinazolin-4-yl]-piperidine-1-carboxylic acid (6-morpholin-4-yl-pyridin-3-yl)-amide], the values for the half-inhibitory concentration (IC50) in experiment [1] and in experiment [2] were 69 nM and 32 nM, respectively.

In the case of `CS(=O)(=O)NCCCOc1ccc2c(C3CCN(C(=O)Nc4ccc(OC5CCCC5)nc4)CC3)ncnc2c1` [Example 88, 4-[7-(3-Methanesulfonylamino-propoxy)-quinazolin-4-yl]-piperidine-1-carboxylic acid (6-cyclopentyloxy-pyridin-3-yl)-amide], the 50% inhibitory concentration (IC50) in experiment [1] turned out to be 37 nM; in experiment [2] it was 2 nM.

For the compound `O=C1CCCN1CCCOc1ccc2c(C3CCN(C(=O)Nc4ccc(N5CCCC5)nc4)CC3)ncnc2c1` [Example 89, 4-{7-[3-(2-Oxo-pyrrolidin-1-yl)-propoxy]-quinazolin-4-yl}-piperidine-1-carboxylic acid (6-pyrrolidin-1-yl-pyridin-3-yl)-amide], the half-inhibitory concentration (IC50) was 24 nM in experiment [1] and 2 nM in experiment [2].

These data come from patent US20070004660A1, “Synergistic Modulation of Flt3 Kinase Using Alkylquinolines and Alkylquinazolines” (priority 2005, published 2007).
